Tests used:
[1] = molecular target: human recombinant histamine H1 receptor (Homo sapiens, UniProt P35367); experiment: Histamine H1 radioligand binding assay ([3H]Pyrilamine); conditions: compound at 1 μM, receptor expressed in CHO cells
Experimental: To evaluate in radioligand binding assays the activity of compounds of the invention, human recombinant histamine H1 receptor expressed in Chinese hamster ovary (CHO) cells (De Backer, M. D. et al., Biochem. Biophys. Res. Comm. 197(3):1601, 1993) in a modified Tris-HCl buffer (50 mM Tris-HCl, pH 7.4, 2 mM MgCl2, 100 mM NaCl, 250 mM Sucrose) was used. Compounds of the invention were incubated with 1.2 nM [^3H]Pyrilamine for 180 min at 25° C. Non-specific binding was estimated in the presence of 1 μM pyrilamine Receptor proteins were filtered and washed, the filters were then counted to determine [^3H]Pyrilamine specifically bound. Compounds were screened at 1 μM or lower, using 1% DMSO as vehicle. Biochemical assay results are presented as the percent inhibition of specific binding in Table 2.

[2] = molecular target: human recombinant dopamine D2L receptor (Homo sapiens, UniProt P14416); experiment: Dopamine D2L radioligand binding assay ([3H]Spiperone); conditions: compound at 1 μM, 0.16 nM [3H]Spiperone, CHO cells, read-out: Percent Inhibition of ligand binding, Dopamine (1μM)
Sequence of human recombinant dopamine D2L receptor (P14416 whole entry): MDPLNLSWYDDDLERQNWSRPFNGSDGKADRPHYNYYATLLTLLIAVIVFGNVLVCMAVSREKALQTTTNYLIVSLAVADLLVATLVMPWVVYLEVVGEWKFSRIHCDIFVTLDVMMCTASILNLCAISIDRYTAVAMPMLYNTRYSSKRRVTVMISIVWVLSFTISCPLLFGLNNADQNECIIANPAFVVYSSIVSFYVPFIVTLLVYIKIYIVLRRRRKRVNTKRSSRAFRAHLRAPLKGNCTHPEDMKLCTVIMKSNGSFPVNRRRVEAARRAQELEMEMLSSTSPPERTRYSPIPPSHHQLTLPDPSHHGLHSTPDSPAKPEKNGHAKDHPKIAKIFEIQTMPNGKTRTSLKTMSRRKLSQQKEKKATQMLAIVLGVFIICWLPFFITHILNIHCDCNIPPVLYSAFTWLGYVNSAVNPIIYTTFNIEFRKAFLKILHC
Experimental: (§1) Compounds of the invention were incubated with 0.16 nM [^3H]Spiperone for 120 min at 25° C. Non-specific binding was estimated in the presence of 10 μM Haloperidol. Receptor proteins were filtered and washed, the filters were then counted to determine [^3H]Spiperone specifically bound. Compounds were screened at 1 μM or lower, using 1% DMSO as vehicle. Biochemical assay results are presented as the percent inhibition of specific binding in Table 3.

[3] = molecular target: T1, human recombinant serotonin (5-Hydroxytryptamine) 5-HT2A receptor (Homo sapiens, UniProt P28223); experiment: Serotonin 5-HT2A radioligand binding assay ([3H]Ketanserin); conditions: 0.5 nM [3H]Ketanserin, CHO-K1 cells; for inhibition at 0.1 µM: compound at 0.1 μM, read-out: Percent Inhibition of ligand binding, Serotonin (0.1 μM) 5-HT2A
T1 construct: expressed in transfected cells; host or cells: Chinese hamster ovary (CHO-K1) cells
T1 sequence (P28223 whole entry): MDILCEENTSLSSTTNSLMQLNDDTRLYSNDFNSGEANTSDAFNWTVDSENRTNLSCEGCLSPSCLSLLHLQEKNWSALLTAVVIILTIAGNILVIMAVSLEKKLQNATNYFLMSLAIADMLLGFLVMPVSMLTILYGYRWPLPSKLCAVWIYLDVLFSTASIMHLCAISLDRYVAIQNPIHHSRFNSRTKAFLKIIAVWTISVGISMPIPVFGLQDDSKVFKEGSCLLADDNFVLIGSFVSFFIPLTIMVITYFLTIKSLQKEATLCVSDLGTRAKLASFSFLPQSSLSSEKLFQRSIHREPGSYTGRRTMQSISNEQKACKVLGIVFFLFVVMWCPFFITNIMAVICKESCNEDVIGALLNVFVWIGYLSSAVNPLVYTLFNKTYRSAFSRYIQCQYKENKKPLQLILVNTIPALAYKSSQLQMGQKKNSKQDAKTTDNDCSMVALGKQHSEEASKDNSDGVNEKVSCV
Experimental: as §1, with “0.5” for “0.16”, “[^3H]Ketanserin” for “[^3H]Spiperone”, “60” for “120”, “1” for “10”, “Mianserin.” for “Haloperidol.”, “4.” for “3.”

[4] = molecular target: T2, human recombinant serotonin (5-Hydroxytryptamine) 5-HT2C receptor (Homo sapiens, UniProt P28335); experiment: Serotonin 5-HT2C radioligand binding assay ([3H]Mesulergine); conditions: compound at 0.1 μM; 1 nM [3H]Mesulergine; CHO-K1 cells; read-out: Percent Inhibition of ligand binding, Serotonin (0.1 μM) 5-HT2C
T2 construct: expressed in transfected cells; host or cells: Chinese hamster ovary (CHO-K1) cells
T2 sequence (P28335 33-458): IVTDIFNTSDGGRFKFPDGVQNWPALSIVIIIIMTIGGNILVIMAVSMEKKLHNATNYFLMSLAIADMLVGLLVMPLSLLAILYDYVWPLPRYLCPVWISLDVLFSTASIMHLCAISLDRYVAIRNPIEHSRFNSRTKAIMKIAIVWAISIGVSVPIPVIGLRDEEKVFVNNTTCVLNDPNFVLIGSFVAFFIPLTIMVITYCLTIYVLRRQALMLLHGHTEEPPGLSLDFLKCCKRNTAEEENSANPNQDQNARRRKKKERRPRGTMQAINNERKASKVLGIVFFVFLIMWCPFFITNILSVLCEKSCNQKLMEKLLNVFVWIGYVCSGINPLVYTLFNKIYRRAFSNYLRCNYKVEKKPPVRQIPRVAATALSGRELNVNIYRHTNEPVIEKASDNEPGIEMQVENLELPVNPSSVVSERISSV
Experimental: as §1, with “1” for “0.16”, “[^3H]Mesulergine” for “[^3H]Spiperone”, “60” for “120”, “1” for “10”, “Mianserin.” for “Haloperidol.”, “4.” for “3.”

[5] = molecular target: human recombinant serotonin (5-Hydroxytryptamine) 5-HT7 receptor (Homo sapiens, UniProt P34969); experiment: Serotonin 5-HT7 radioligand binding assay ([3H]LSD); conditions: compound at 0.1 μM; 5.5 nM [3H]LSD; CHO cells; read-out: Percent Inhibition of ligand binding, Serotonin (0.1 μM) 5-HT7
Sequence of human recombinant serotonin (5-Hydroxytryptamine) 5-HT7 receptor (P34969 whole entry): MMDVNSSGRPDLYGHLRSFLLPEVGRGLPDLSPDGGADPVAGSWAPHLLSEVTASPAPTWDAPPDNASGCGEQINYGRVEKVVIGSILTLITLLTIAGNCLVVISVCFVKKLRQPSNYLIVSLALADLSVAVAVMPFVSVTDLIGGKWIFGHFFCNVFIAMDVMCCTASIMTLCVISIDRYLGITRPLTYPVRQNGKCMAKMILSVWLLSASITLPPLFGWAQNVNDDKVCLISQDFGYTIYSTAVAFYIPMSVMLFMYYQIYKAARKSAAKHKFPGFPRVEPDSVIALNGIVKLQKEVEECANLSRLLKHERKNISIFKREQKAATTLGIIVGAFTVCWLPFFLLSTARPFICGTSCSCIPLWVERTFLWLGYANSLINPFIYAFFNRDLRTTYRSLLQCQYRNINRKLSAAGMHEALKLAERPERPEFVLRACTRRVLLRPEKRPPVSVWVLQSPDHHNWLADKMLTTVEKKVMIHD
Experimental: Compounds of invention were incubated with 5.5 nM [^3H] Lysergic acid diethylamide (LSD) for 2 h at 25° C. […] Receptor proteins were filtered and washed, the filters were then counted to determine [^3H]LSD specifically bound. Compounds were screened at 1 μM or lower, using 1% DMSO as vehicle. Biochemical assay results are presented as the percent inhibition of specific binding in Table 4.

[6] = molecular target: T3, human recombinant serotonin (5-Hydroxytryptamine) 5-HT6 receptor (Homo sapiens, UniProt P50406); experiment: Serotonin 5-HT6 radioligand binding assay ([3H]LSD); conditions: compound at 0.1 μM, HeLa cells, read-out: Percent Inhibition of ligand binding, Serotonin (0.1 μM) 5-HT6
T3 construct: expressed in transfected cells; host or cells: human HeLa cells
T3 sequence (P50406 whole entry): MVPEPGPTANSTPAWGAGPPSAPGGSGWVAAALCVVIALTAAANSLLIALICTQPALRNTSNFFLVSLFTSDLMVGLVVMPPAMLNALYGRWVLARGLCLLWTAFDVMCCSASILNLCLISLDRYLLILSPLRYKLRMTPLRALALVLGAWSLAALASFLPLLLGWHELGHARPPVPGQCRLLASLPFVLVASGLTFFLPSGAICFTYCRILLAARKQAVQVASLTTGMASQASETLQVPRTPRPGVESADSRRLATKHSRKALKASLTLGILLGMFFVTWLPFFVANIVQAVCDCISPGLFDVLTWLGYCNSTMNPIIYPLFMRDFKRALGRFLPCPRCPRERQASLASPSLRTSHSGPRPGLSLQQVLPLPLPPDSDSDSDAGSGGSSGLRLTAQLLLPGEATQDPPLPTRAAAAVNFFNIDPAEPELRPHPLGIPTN
Experimental: Compounds of the invention were incubated with 1.5 nM [3H]Lysergic acid diethylamide (LSD) for 120 min at 37° C. […] Receptor proteins were filtered and washed, the filters were then counted to determine [3H]LSD specifically bound. Compounds were screened at 1 μM or lower, using 1% DMSO as vehicle. Biochemical assay results are presented as the percent inhibition of specific binding in Table 4.

Sequence of human recombinant histamine H1 receptor (P35367 whole entry): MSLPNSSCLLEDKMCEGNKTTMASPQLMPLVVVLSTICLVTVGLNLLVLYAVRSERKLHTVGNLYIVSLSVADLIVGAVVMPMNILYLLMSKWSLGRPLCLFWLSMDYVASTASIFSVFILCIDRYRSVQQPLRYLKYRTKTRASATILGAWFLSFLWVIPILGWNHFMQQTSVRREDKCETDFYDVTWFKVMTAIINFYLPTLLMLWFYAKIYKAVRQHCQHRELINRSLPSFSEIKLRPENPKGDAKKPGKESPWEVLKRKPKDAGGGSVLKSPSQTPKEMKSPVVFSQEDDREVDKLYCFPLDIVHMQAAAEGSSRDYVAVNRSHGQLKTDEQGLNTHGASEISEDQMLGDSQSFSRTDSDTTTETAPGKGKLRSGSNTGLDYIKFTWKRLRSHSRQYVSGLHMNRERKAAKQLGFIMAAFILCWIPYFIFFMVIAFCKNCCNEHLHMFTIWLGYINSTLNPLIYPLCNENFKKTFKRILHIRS

SMILES | inhibition at 1 µM [1] [%] | inhibition at 1 µM [2] [%] | inhibition at 0.1 µM [3] [%] | inhibition at 1 µM ([3]; compound at 1 μM, read-out: Percent Inhibition of ligand binding, Serotonin (1 μM) 5-HT2A) [%] | inhibition at 0.1 µM [4] [%] | inhibition at 0.1 µM [5] [%] | inhibition at 0.1 µM [6] [%]
Cc1ccc2c(c1)c1c(n2CC(O)(c2ccc(F)cc2)C2CCCCC2)CCN(C)C1 (centres unmarked) [Compound 1-1, 1-cyclohexyl-2-(2,8-dimethyl-3,4-dihydro-1H-pyrido[4,3-b]indol-5(2H)-yl)-1-(4-fluorophenyl)ethanol] | 22 | 13 | 60 | 97 |  |  | 
CCC(O)(Cn1c2c(c3cc(C)ccc31)CN(C)CC2)c1ccncc1 (centres unmarked) [Compound 1-24, 1-(2,8-dimethyl-3,4-dihydro-1H-pyrido[4,3-b]indol-5(2H)-yl)-2-(pyridin-4-yl)butan-2-ol] |  | 9 | 36 |  | 8 | 12 | 10
Cc1ccc2c(c1)c1c(n2CC(C)(O)c2ccncc2)CCN(CC(F)(F)F)C1 (centres unmarked) [Compound 1-29, 1-(8-methyl-2-(2,2,2-trifluoroethyl)-3,4-dihydro-1H-pyrido[4,3-b]indol-5(2H)-yl)-2-(pyridin-4-yl)propan-2-ol] |  |  | 11 |  | 3 | 2 | 2
Cc1ccc2c(c1)c1c(n2CC(C)(O)c2ccncc2)CCN(C2CC2)C1 (centres unmarked) [Compound 1-30, 1-(2-cyclopropyl-8-methyl-3,4-dihydro-1H-pyrido[4,3-b]indol-5(2H)-yl)-2-(pyridin-4-yl)propan-2-ol] |  |  | 14 |  | 4 | 6 | 1
COc1cccc2c3c(n(CC(C)(O)c4ccncc4)c12)CCN(C)C3 (centres unmarked) [Compound 1-31, 1-(6-methoxy-2-methyl-3,4-dihydro-1H-pyrido[4,3-b]indol-5(2H)-yl)-2-(pyridin-4-yl)propan-2-ol] |  |  | 8 |  | 5 | -1 | -7
CC(C)c1ccc2c3c(n(CC(C)(O)c4ccncc4)c2c1)CCN(C)C3 (centres unmarked) [Compound 1-32, 1-(7-isopropyl-2-methyl-3,4-dihydro-1H-pyrido[4,3-b]indol-5(2H)-yl)-2-(pyridin-4-yl)propan-2-ol] |  |  | -6 |  | -6 | 31 | -1
Cc1ccc2c(c1)c1c(n2CC(C)(O)c2ccncc2)CC(C)N(C)C1 (centres unmarked) [Compound 1-33, 2-(pyridin-4-yl)-1-(2,3,8-trimethyl-3,4-dihydro-1H-pyrido[4,3-b]indol-5(2H)-yl)propan-2-ol] |  |  | 43 |  | 56 | 40 | -1
Cc1ccc2c(c1)c1c(n2CCc2ccc(C)nc2)CC(C)N(C)C1 (centres unmarked) [Compound 1-44, 2,3,8-trimethyl-5-(2-(6-methylpyridin-3-yl)ethyl)-2,3,4,5-tetrahydro-1H-pyrido[4,3-b]indole] | 100 | 8 | 16 |  | 45 | 74 | 46
Cc1ccc2c(c1)c1c(n2CCc2ccc(C(F)(F)F)nc2)CC(C)N(C)C1 (centres unmarked) [Compound 1-45, 2,3,8-trimethyl-5-(2-(6-(trifluoromethyl)pyridin-3-yl)ethyl)-2,3,4,5-tetrahydro-1H-pyrido[4,3-b]indole] | 96 | 0 | 51 |  | 50 | 78 | 18
Cc1ccc2c(c1)c1c(n2CC(C)c2ccc(C)nc2)CC(C)N(C)C1 (centres unmarked) [Compound 1-47, 2,3,8-trimethyl-5-(2-(6-methylpyridin-3-yl)propyl)-2,3,4,5-tetrahydro-1H-pyrido[4,3-b]indole] | 91 | 12 | 46 |  | 70 | 85 | 19
Cc1ccc(CCn2c3c(c4cc(Cl)ccc42)CN(C)C(C)C3)cn1 (centres unmarked) [Compound 1-48, 8-chloro-2,3-dimethyl-5-(2-(6-methylpyridin-3-yl)ethyl)-2,3,4,5-tetrahydro-1H-pyrido[4,3-b]indole] | 101 | 12 | 30 |  | 40 | 86 | 50
Cc1ccc2c(c1)c1c(n2CC2(c3ccncc3)CC2)CCN(C)C1 [Compound 1-50, 2,8-dimethyl-5-((1-(pyridin-4-yl)cyclopropyl)methyl)-2,3,4,5-tetrahydro-1H-pyrido[4,3-b]indole] | 97 | 47 | 77 |  | -1 | 95 | 30
Cc1ccc2c(c1)c1c(n2CCc2ccc(C(F)(F)F)nc2)C(C)CN(C)C1 (centres unmarked) [Compound 1-51, 2,4,8-trimethyl-5-(2-(6-(trifluoromethyl)pyridin-3-yl)ethyl)-2,3,4,5-tetrahydro-1H-pyrido[4,3-b]indole] | 65 | 14 | 77 |  | 92 | 15 | 4
